According to ChEMBL document CHEMBL1201861, “Genomics of Drug Sensitity in Cancer screening data, Wellcome Trust Sanger Institute”:
pIC50: −log10 of the molar value.

Legend:
Assay in all cases: cells
CTB-1 = type: functional, cell-based, Homo sapiens; details: Homo sapiens, CTB-1
Description: SANGER: Inhibition of human CTB-1 cell growth in a cell viability assay.

Calu-6 = type: functional, cell-based, Homo sapiens; details: Homo sapiens, Calu-6
Description: SANGER: Inhibition of human Calu-6 cell growth in a cell viability assay.

D283 Med = type: functional, cell-based, Homo sapiens; details: Homo sapiens, D283 Med
Description: SANGER: Inhibition of human D-283MED cell growth in a cell viability assay.

DJM-1 = type: functional, cell-based, Homo sapiens; details: Homo sapiens, DJM-1
Description: SANGER: Inhibition of human DJM-1 cell growth in a cell viability assay.

DOHH-2 = type: functional, cell-based, Homo sapiens; details: Homo sapiens, DOHH-2
Description: SANGER: Inhibition of human DOHH-2 cell growth in a cell viability assay.

EKVX = type: functional, cell-based, Homo sapiens; details: Homo sapiens, EKVX
Description: SANGER: Inhibition of human EKVX cell growth in a cell viability assay.

EW-1 = type: functional, cell-based, Homo sapiens; details: Homo sapiens, EW-1
Description: SANGER: Inhibition of human EW-1 cell growth in a cell viability assay.

EW-11 = type: functional, cell-based, Homo sapiens; details: Homo sapiens, EW-11
Description: SANGER: Inhibition of human EW-11 cell growth in a cell viability assay.

HD-MY-Z = type: functional, cell-based, Homo sapiens; details: Homo sapiens, HD-MY-Z
Description: SANGER: Inhibition of human HD-MY-Z cell growth in a cell viability assay.

HL-60 = type: functional, cell-based, Homo sapiens; details: Homo sapiens, HL-60
Description: SANGER: Inhibition of human HL-60 cell growth in a cell viability assay.

HT = type: functional, cell-based, Homo sapiens; details: Homo sapiens, HT
Description: SANGER: Inhibition of human HT cell growth in a cell viability assay.

HT-144 = type: functional, cell-based, Homo sapiens; details: Homo sapiens, HT-144
Description: SANGER: Inhibition of human HT-144 cell growth in a cell viability assay.

JVM-2 = type: functional, cell-based, Homo sapiens; details: Homo sapiens, JVM-2
Description: SANGER: Inhibition of human JVM-2 cell growth in a cell viability assay.

KARPAS-45 = type: functional, cell-based, Homo sapiens; details: Homo sapiens, KARPAS-45
Description: SANGER: Inhibition of human KARPAS-45 cell growth in a cell viability assay.

KINGS-1 = type: functional, cell-based, Homo sapiens; details: Homo sapiens, KINGS-1
Description: SANGER: Inhibition of human KINGS-1 cell growth in a cell viability assay.

KNS-42 = type: functional, cell-based; details: Homo sapiens
Description: SANGER: Inhibition of human KNS-42 cell growth in a cell viability assay.

LOX IMVI = type: functional, cell-based, Homo sapiens; details: Homo sapiens, LOX IMVI
Description: SANGER: Inhibition of human LOXIMVI cell growth in a cell viability assay.

Lu-65 = type: functional, cell-based, Homo sapiens; details: Homo sapiens, Lu-65
Description: SANGER: Inhibition of human LU-65 cell growth in a cell viability assay.

MEG-01 = type: functional, cell-based, Homo sapiens; details: Homo sapiens, MEG-01
Description: SANGER: Inhibition of human MEG-01 cell growth in a cell viability assay.

MZ2-MEL = type: functional, cell-based, Homo sapiens; details: Homo sapiens, MZ2-MEL
Description: SANGER: Inhibition of human MZ2-MEL cell growth in a cell viability assay.

NCI-H1092 = type: functional, cell-based, Homo sapiens; details: Homo sapiens, NCI-H1092
Description: SANGER: Inhibition of human NCI-H1092 cell growth in a cell viability assay.

NCI-H1155 = type: functional, cell-based, Homo sapiens; details: Homo sapiens, NCI-H1155
Description: SANGER: Inhibition of human NCI-H1155 cell growth in a cell viability assay.

NCI-H1581 = type: functional, cell-based, Homo sapiens; details: Homo sapiens, NCI-H1581
Description: SANGER: Inhibition of human NCI-H1581 cell growth in a cell viability assay.

NCI-H23 = type: functional, cell-based, Homo sapiens; details: Homo sapiens, NCI-H23
Description: SANGER: Inhibition of human NCI-H23 cell growth in a cell viability assay.

NCI-H446 = type: functional, cell-based, Homo sapiens; details: Homo sapiens, NCI-H446
Description: SANGER: Inhibition of human NCI-H446 cell growth in a cell viability assay.

NCI-H69 = type: functional, cell-based, Homo sapiens; details: Homo sapiens, NCI-H69
Description: SANGER: Inhibition of human NCI-H69 cell growth in a cell viability assay.

NCI-H82 = type: functional, cell-based, Homo sapiens; details: Homo sapiens, NCI-H82
Description: SANGER: Inhibition of human NCI-H82 cell growth in a cell viability assay.

SNU-5 = type: functional, cell-based, Homo sapiens; details: Homo sapiens, SNU-5
Description: SANGER: Inhibition of human NCI-SNU-5 cell growth in a cell viability assay.

NEC8 = type: functional, cell-based, Homo sapiens; details: Homo sapiens, NEC8
Description: SANGER: Inhibition of human NEC8 cell growth in a cell viability assay.

NKM-1 = type: functional, cell-based, Homo sapiens; details: Homo sapiens, NKM-1
Description: SANGER: Inhibition of human NKM-1 cell growth in a cell viability assay.

OMC-1 = type: functional, cell-based, Homo sapiens; details: Homo sapiens, OMC-1
Description: SANGER: Inhibition of human OMC-1 cell growth in a cell viability assay.

P30-OHK = type: functional, cell-based, Homo sapiens; details: Homo sapiens, P30-OHK
Description: SANGER: Inhibition of human P30-OHK cell growth in a cell viability assay.

PSN1 = type: functional, cell-based, Homo sapiens; details: Homo sapiens, PSN1
Description: SANGER: Inhibition of human PSN1 cell growth in a cell viability assay.

RCC10RGB = type: functional, cell-based, Homo sapiens; details: Homo sapiens, RCC10RGB
Description: SANGER: Inhibition of human RCC10RGB cell growth in a cell viability assay.

RPMI-8226 = type: functional, cell-based, Homo sapiens; details: Homo sapiens, RPMI-8226
Description: SANGER: Inhibition of human RPMI-8226 cell growth in a cell viability assay.

SBC-1 = type: functional, cell-based, Homo sapiens; details: Homo sapiens, SBC-1
Description: SANGER: Inhibition of human SBC-1 cell growth in a cell viability assay.

SK-MEL-1 = type: functional, cell-based, Homo sapiens; details: Homo sapiens, SK-MEL-1
Description: SANGER: Inhibition of human SK-MEL-1 cell growth in a cell viability assay.

SK-N-DZ = type: functional, cell-based, Homo sapiens; details: Homo sapiens, SK-N-DZ; read-out: IC50
Description: SANGER: Inhibition of human SK-N-DZ cell growth in a cell viability assay.

SW 954 = type: functional, cell-based, Homo sapiens; details: Homo sapiens, SW 954
Description: SANGER: Inhibition of human SW954 cell growth in a cell viability assay.

A3-KAW = type: functional, cell-based, Homo sapiens; details: Homo sapiens, A3-KAW
Description: SANGER: Inhibition of human A3-KAW cell growth in a cell viability assay.

A388 = type: functional, cell-based; details: Homo sapiens
Description: SANGER: Inhibition of human A388 cell growth in a cell viability assay.

ALL-PO = type: functional, cell-based, Homo sapiens; details: Homo sapiens, ALL-PO
Description: SANGER: Inhibition of human ALL-PO cell growth in a cell viability assay.

BV-173 = type: functional, cell-based, Homo sapiens; details: Homo sapiens, BV-173
Description: SANGER: Inhibition of human BV-173 cell growth in a cell viability assay.

TE-10 = type: functional, cell-based, Homo sapiens; details: Homo sapiens, TE-10
Description: SANGER: Inhibition of human TE-10 cell growth in a cell viability assay.

TE-8 = type: functional, cell-based, Homo sapiens; details: Homo sapiens, TE-8
Description: SANGER: Inhibition of human TE-8 cell growth in a cell viability assay.

TGBC1TKB = type: functional, cell-based, Homo sapiens; details: Homo sapiens, TGBC1TKB
Description: SANGER: Inhibition of human TGBC1TKB cell growth in a cell viability assay.

VA-ES-BJ = type: functional, cell-based, Homo sapiens; details: Homo sapiens, VA-ES-BJ
Description: SANGER: Inhibition of human VA-ES-BJ cell growth in a cell viability assay.

NCI-H2126 = type: functional, cell-based, Homo sapiens; details: Homo sapiens, NCI-H2126
Description: SANGER: Inhibition of human NCI-H2126 cell growth in a cell viability assay.

## NC1(c2ccc(-c3nc4ccn5c(=O)[nH]nc5c4cc3-c3ccccc3)cc2)CCC1 [MK-2206]
CTB-1
  pIC50: 5.89
Calu-6
  pIC50: < 5.40
D283 Med
  pIC50: < 5.40
DJM-1
  pIC50: < 5.40
DOHH-2
  pIC50: 5.89
EKVX
  pIC50: < 5.40
EW-1
  pIC50: < 5.40
EW-11
  pIC50: < 5.40
HD-MY-Z
  pIC50: < 5.40
HL-60
  pIC50: < 5.40
HT
  pIC50: 6.20
HT-144
  pIC50: < 5.40
JVM-2
  pIC50: < 5.40
KARPAS-45
  pIC50: 6.43
KINGS-1
  pIC50: < 5.40
KNS-42
  pIC50: < 5.40
LOX IMVI
  pIC50: < 5.40
Lu-65
  pIC50: < 5.40
MEG-01
  pIC50: < 5.40
MZ2-MEL
  pIC50: < 5.40
NCI-H1092
  pIC50: < 5.40
NCI-H1155
  pIC50: < 5.40
NCI-H1581
  pIC50: < 5.40
NCI-H23
  pIC50: < 5.40
NCI-H446
  pIC50: < 5.40
NCI-H69
  pIC50: < 5.40
NCI-H82
  pIC50: < 5.40
SNU-5
  pIC50: < 5.40
NEC8
  pIC50: 7.02
NKM-1
  pIC50: 6.06
OMC-1
  pIC50: 5.76
P30-OHK
  pIC50: 5.42
PSN1
  pIC50: < 5.40
RCC10RGB
  pIC50: < 5.40
RPMI-8226
  pIC50: 5.58
SBC-1
  pIC50: 6.36
SK-MEL-1
  pIC50: < 5.40
SK-N-DZ
  pIC50: < 5.40
SW 954
  pIC50: < 5.40
A3-KAW
  pIC50: < 5.40
A388
  pIC50: < 5.40
ALL-PO
  pIC50: < 5.40
BV-173
  pIC50: 5.74
TE-10
  pIC50: < 5.40
TE-8
  pIC50: < 5.40
TGBC1TKB
  pIC50: < 5.40
VA-ES-BJ
  pIC50: 6.14

## CS(=O)(=O)N1CCN(Cc2cc3nc(-c4cccc5[nH]ncc45)nc(N4CCOCC4)c3s2)CC1 [PICTILISIB]
CTB-1
  pIC50: 5.94
Calu-6
  pIC50: < 5.40
D283 Med
  pIC50: 5.63
DJM-1
  pIC50: < 5.40
DOHH-2
  pIC50: < 5.40
EKVX
  pIC50: 5.99
EW-1
  pIC50: < 5.40
EW-11
  pIC50: < 5.40
HD-MY-Z
  pIC50: < 5.40
HL-60
  pIC50: 6.37
HT
  pIC50: 5.95
HT-144
  pIC50: < 5.40
KINGS-1
  pIC50: < 5.40
KNS-42
  pIC50: < 5.40
LOX IMVI
  pIC50: 5.69
MEG-01
  pIC50: < 5.40
MZ2-MEL
  pIC50: 5.44
NCI-H1092
  pIC50: < 5.40
NCI-H1155
  pIC50: < 5.40
NCI-H1581
  pIC50: < 5.40
NCI-H2126
  pIC50: < 5.40
NCI-H23
  pIC50: < 5.40
NCI-H446
  pIC50: < 5.40
NCI-H82
  pIC50: < 5.40
NEC8
  pIC50: 6.18
NKM-1
  pIC50: 6.23
OMC-1
  pIC50: 6.12
P30-OHK
  pIC50: 6.14
PSN1
  pIC50: < 5.40
RCC10RGB
  pIC50: < 5.40
RPMI-8226
  pIC50: < 5.40
SK-MEL-1
  pIC50: 5.88
SK-N-DZ
  pIC50: < 5.40
SW 954
  pIC50: < 5.40
A3-KAW
  pIC50: < 5.40
A388
  pIC50: < 5.40
ALL-PO
  pIC50: < 5.40
TE-10
  pIC50: < 5.40
TE-8
  pIC50: 5.46
TGBC1TKB
  pIC50: < 5.40
VA-ES-BJ
  pIC50: 5.79

## CN(C)CCOc1ccc(-c2nc(-c3ccncc3)c(-c3ccc4c(c3)CC/C4=N\O)[nH]2)cc1 [SB590885]
CTB-1
  pIC50: < 5.30
Calu-6
  pIC50: < 5.30
D283 Med
  pIC50: < 5.30
DJM-1
  pIC50: < 5.30
DOHH-2
  pIC50: < 5.30
EKVX
  pIC50: < 5.30
EW-1
  pIC50: < 5.30
EW-11
  pIC50: < 5.30
HD-MY-Z
  pIC50: < 5.30
HL-60
  pIC50: < 5.30
HT
  pIC50: < 5.30
HT-144
  pIC50: 6.36
JVM-2
  pIC50: < 5.30
KARPAS-45
  pIC50: 5.41
KINGS-1
  pIC50: < 5.30
KNS-42
  pIC50: < 5.30
LOX IMVI
  pIC50: 5.50
Lu-65
  pIC50: < 5.30
MEG-01
  pIC50: < 5.30
MZ2-MEL
  pIC50: < 5.30
NCI-H1092
  pIC50: < 5.30
NCI-H1155
  pIC50: < 5.30
NCI-H1581
  pIC50: < 5.30
NCI-H2126
  pIC50: < 5.30
NCI-H23
  pIC50: < 5.30
NCI-H446
  pIC50: < 5.30
NCI-H69
  pIC50: < 5.30
NCI-H82
  pIC50: < 5.30
SNU-5
  pIC50: 5.80
NEC8
  pIC50: < 5.30
NKM-1
  pIC50: 5.78
OMC-1
  pIC50: < 5.30
P30-OHK
  pIC50: < 5.30
PSN1
  pIC50: 5.73
RCC10RGB
  pIC50: < 5.30
RPMI-8226
  pIC50: < 5.30
SBC-1
  pIC50: < 5.30
SK-MEL-1
  pIC50: < 5.30
SK-N-DZ
  pIC50: < 5.30
SW 954
  pIC50: < 5.30
A3-KAW
  pIC50: < 5.30
A388
  pIC50: < 5.30
ALL-PO
  pIC50: < 5.30
BV-173
  pIC50: 6.11
TE-10
  pIC50: < 5.30
TE-8
  pIC50: < 5.30
TGBC1TKB
  pIC50: < 5.30
VA-ES-BJ
  pIC50: < 5.30
